Assay results taken from patent US20250179078A1, “INHIBITORS OF NLRP3” (PTC THERAPEUTICS, INC., priority 2022, published 2025).

Target: T1, NLRP3 (Homo sapiens, UniProt Q96P20)
T1 construct: host or cells: THP-1 cells differentiated with PMA
Assay: IL-1β Secretion Assay (NLRP3-dependent IL1β secretion in THP1 cells)
Type: cell-based
Details: PMA-differentiated THP-1 cells; compounds incubated 20 h; 2.5 μM Nigericin 3 h; HTRF IL-1β readout; read-out: IC50 IL-1β Inhibition
Description: Monocytic THP-1 cells (ATCC: TIB-202) were maintained in growth media consisting of RPMI 1640 medium (ThermoFisher, Cat #11875-085), 10% FBS (ThermoFisher) and 0.05 mM β-mercaptoethanol (ThermoFisher, Cat #21985-023), according to the provider's instructions. The cell concentration was adjusted to 7.5×10^5 cells/mL, and plated in complete growth media with a final concentration of 100 ng/mL phorbol 12-myristate 13-acetate (PMA, Sigma #P8139). Cells were seeded at 100 µL/well into a 96-well cell culture plate (ThermoFisher Cat #165305) and allowed to differentiate for 24 h in a cell culture incubator at 37° C. with 5% CO2. Cells were washed 1× with 100 ul PBS and replaced with fresh RPMI+5% FBS. Compounds were serial diluted in DMSO with 3 fold dilution for a total of 7 concentrations. Diluted compounds were added to the cells at a ratio of 1:200 and incubated for 20 h. The NLRP3 inflammasome was activated with the addition of 2.5 μM Nigericin (Sigma: Cat #SML1779-1 ml), for 3 h. After incubation, 15 μL of conditioned media was removed and assayed for levels of IL-1β using the HTRF IL-1β assay kit (Cisbio: Cat #62HIL1BPEH) as per the manufacturer's instructions.
Compounds, once produced and prepared according to the present invention, can be assessed in variety of assays to characterize their activities. For example, NLRP3-dependent IL1β secretion was evaluated in THP1 cells. IC50 values of IL1β inhibition were calculated from the plot of percentage of inhibition versus the inhibitor concentration by a logistics fit. TABLE I depict examples of compounds according to generic Formula I. Data which is <1 nM is listed as *****; data 1-10 nM is listed as ****; data 10-100 nM is listed as ***, data 100-300 nM is listed as **, data ≥300 nM is listed as *.

T1 sequence (Q96P20 whole entry): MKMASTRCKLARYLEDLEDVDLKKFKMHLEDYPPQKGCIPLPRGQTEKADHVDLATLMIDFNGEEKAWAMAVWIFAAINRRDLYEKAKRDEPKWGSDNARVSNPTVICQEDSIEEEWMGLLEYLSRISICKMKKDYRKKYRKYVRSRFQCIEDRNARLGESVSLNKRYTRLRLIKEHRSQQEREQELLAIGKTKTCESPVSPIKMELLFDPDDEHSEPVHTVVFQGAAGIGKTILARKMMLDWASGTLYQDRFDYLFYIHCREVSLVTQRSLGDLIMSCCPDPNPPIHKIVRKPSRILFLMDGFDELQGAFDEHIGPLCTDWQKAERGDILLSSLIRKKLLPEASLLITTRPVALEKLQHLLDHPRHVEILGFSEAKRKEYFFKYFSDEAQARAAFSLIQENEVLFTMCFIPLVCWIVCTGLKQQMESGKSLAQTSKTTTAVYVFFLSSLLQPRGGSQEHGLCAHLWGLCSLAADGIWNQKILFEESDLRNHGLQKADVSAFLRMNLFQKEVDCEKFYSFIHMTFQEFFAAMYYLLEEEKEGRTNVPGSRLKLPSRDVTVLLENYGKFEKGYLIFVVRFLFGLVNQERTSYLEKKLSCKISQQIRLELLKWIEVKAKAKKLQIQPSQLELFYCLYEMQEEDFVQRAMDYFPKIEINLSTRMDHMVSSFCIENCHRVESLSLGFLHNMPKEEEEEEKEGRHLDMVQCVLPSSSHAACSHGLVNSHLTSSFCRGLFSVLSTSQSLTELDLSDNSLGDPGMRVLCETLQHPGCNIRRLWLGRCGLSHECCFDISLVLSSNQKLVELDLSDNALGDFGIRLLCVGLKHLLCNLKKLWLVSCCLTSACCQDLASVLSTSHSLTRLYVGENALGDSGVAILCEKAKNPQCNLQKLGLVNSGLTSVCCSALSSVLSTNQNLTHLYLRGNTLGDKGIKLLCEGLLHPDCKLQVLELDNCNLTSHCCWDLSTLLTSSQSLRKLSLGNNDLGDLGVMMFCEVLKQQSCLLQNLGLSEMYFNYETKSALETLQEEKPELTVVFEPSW

IC50 [µM]	Compound
0.01 to 0.1	COc1ccc(-c2nnc(NCCO)n3cccc23)c(OC(F)(F)F)c1 [Compound 64, 2-({1-[4-methoxy-2-(trifluoromethoxy)phenyl]pyrrolo[1,2-d][1,2,4]triazin-4-yl}amino)ethan-1-ol]
0.001 to 0.01	COc1ccc(-c2nnc(NC3CCOCC3)n3cccc23)c(OC(F)(F)F)c1 [Compound 67, 1-[4-methoxy-2-(trifluoromethoxy)phenyl]-N-(oxan-4-yl)pyrrolo[1,2-d][1,2,4]triazin-4-amine]
< 0.001	O[C@@H]1CCCC[C@H]1Nc1nnc(-c2ccc(C(F)(F)F)cc2OC(F)(F)F)c2cncn12 [Compound 242, (1R,2R)-2-({1-[2-(trifluoromethoxy)-4-(trifluoromethyl)phenyl]imidazo[1,5-d][1,2,4]triazin-4-yl}amino)cyclohexan-1-ol]
0.001 to 0.01	C[C@]1(O)C[C@@H](Nc2nnc(-c3ccc(C4CC4)cc3OC(F)F)c3cncn23)C1 [Compound 345, (1s,3s)-3-({1-[4-cyclopropyl-2-(difluoromethoxy)phenyl]imidazo[1,5-d][1,2,4]triazin-4-yl}amino)-1-methylcyclobutan-1-ol]
0.01 to 0.1	OCCN1CCC[C@@H](Nc2nnc(-c3ccc(Cl)cc3OC(F)F)c3cncn23)C1 [Compound 192, 2-[(3R)-3-({1-[4-chloro-2-(difluoromethoxy)phenyl]imidazo[1,5-d][1,2,4]triazin-4-yl}amino)piperidin-1-yl]ethan-1-ol]
< 0.001	OCCN1CCC[C@@H](Nc2nnc(-c3ccc(OC(F)F)cc3OC(F)(F)F)c3cccn23)C1 [Compound 86, 2-[(3R)-3-({1-[4-(difluoromethoxy)-2-(trifluoromethoxy)phenyl]pyrrolo[1,2-d][1,2,4]triazin-4-yl}amino)piperidin-1-yl]ethan-1-ol]
0.001 to 0.01	COc1ccc(-c2nnc(NCc3cccc(O)c3)n3cncc23)c(OC(F)(F)F)c1 [Compound 233, 3-[{{1-[4-methoxy-2-(trifluoromethoxy)phenyl]imidazo[1,5-d][1,2,4]triazin-4-yl}amino)methyl]phenol]
0.001 to 0.01	CC(Nc1nnc(-c2ccc(C(F)(F)F)cc2OC(F)F)c2cccn12)c1cccc(O)c1 (centres unmarked) [Compound 89, 3-[1-({1-[2-(difluoromethoxy)-4-(trifluoromethyl)phenyl]pyrrolo[1,2-d][1,2,4]triazin-4-yl}amino)ethyl]phenol]
< 0.001	OCCN1CCC[C@@H](Nc2nnc(-c3ccc(C(F)(F)F)cc3OCF)c3cccn23)C1 [Compound 173, 2-[(3R)-3-({1-[2-(fluoromethoxy)-4-(trifluoromethyl)phenyl]pyrrolo[1,2-d][1,2,4]triazin-4-yl}amino)piperidin-1-yl]ethan-1-ol]
0.001 to 0.01	Cc1ccc(-c2nnc(NC(C)c3cccc(O)c3)n3cccc23)c(OC(F)F)c1 (centres unmarked) [Compound 100, 3-[1-({1-[2-(difluoromethoxy)-4-methylphenyl]pyrrolo[1,2-d][1,2,4]triazin-4-yl}amino)ethyl]phenol]
0.001 to 0.01	COc1ccc(-c2nnc(N[C@@H]3CCOC[C@H]3O)n3nc(C)cc23)c(CC(F)(F)F)c1 [Compound 384, (3S,4R)-4-({4-[4-methoxy-2-(2,2,2-trifluoroethyl)phenyl]-2-methylpyrazolo[1,5-d][1,2,4]triazin-7-yl}amino)oxan-3-ol]
≥ 0.3	COc1cccc(C(C)Nc2nnc(-c3ccc(OC)cc3OC(F)(F)F)c3cncn23)c1 (centres unmarked) [Compound 230, N-[1-(3-methoxyphenyl)ethyl]-1-[4-methoxy-2-(trifluoromethoxy)phenyl]imidazo[1,5-d][1,2,4]triazin-4-amine]
< 0.001	CCN1CC[C@@H](O)[C@@H](Nc2nnc(-c3ccc(OC)cc3OC(F)F)c3cccn23)C1 [Compound 175, (3S,4R)-3-({1-[2-(difluoromethoxy)-4-methoxyphenyl]pyrrolo[1,2-d][1,2,4]triazin-4-yl}amino)-1-ethylpiperidin-4-ol]
0.001 to 0.01	COc1ccc(-c2nnc(N[C@@H]3CCCN(CCO)C3)n3cncc23)c(OC(F)F)c1 [Compound 225, 2-[(3R)-3-({1-[2-(difluoromethoxy)-4-methoxyphenyl]imidazo[1,5-d][1,2,4]triazin-4-yl}amino)piperidin-1-yl]ethan-1-ol]
0.001 to 0.01	Cc1ccc(-c2nnc(N[C@@H]3CCCC[C@H]3O)n3cccc23)c(CC(F)(F)F)c1 [Compound 156, (1R,2R)-2-({1-[4-methyl-2-(2,2,2-trifluoroethyl)phenyl]pyrrolo[1,2-d][1,2,4]triazin-4-yl}amino)cyclohexan-1-ol]
< 0.001	Cc1cc2c(-c3ccc(C4CC4)cc3OC(F)F)nnc(N[C@@H]3CCCN(C)C3)n2c1 [Compound 24, 1-[4-cyclopropyl-2-(difluoromethoxy)phenyl]-7-methyl-N-[(3R)-1-methylpiperidin-3-yl]pyrrolo[1,2-d][1,2,4]triazin-4-amine]
0.001 to 0.01	CN1CCC[C@@H](Nc2nnc(-c3ccc(C(F)(F)F)cc3C(F)(F)F)c3c(F)ccn23)C1 [Compound 28, 1-[2,4-bis(trifluoromethyl)phenyl]-8-fluoro-N-[(3R)-1-methylpiperidin-3-yl]pyrrolo[1,2-d][1,2,4]triazin-4-amine]
0.001 to 0.01	CCN1CCC[C@@H](Nc2nnc(-c3ccc(C)cc3OC(F)F)c3cccn23)C1 [Compound 34, 1-[2-(difluoromethoxy)-4-methylphenyl]-N-[(3R)-1-ethylpiperidin-3-yl]pyrrolo[1,2-d][1,2,4]triazin-4-amine]
0.001 to 0.01	O=C1NCCC1Nc1nnc(-c2ccc(OC(F)F)cc2OC(F)(F)F)c2cccn12 (centres unmarked) [Compound 154, 3-({1-[4-(difluoromethoxy)-2-(trifluoromethoxy)phenyl]pyrrolo[1,2-d][1,2,4]triazin-4-yl}amino)pyrrolidin-2-one]
< 0.001	O=C1NCCC1Nc1nnc(-c2ccc(C(F)(F)F)cc2OC(F)(F)F)c2cncn12 (centres unmarked) [Compound 256, 3-({1-[2-(trifluoromethoxy)-4-(trifluoromethyl)phenyl]imidazo[1,5-d][1,2,4]triazin-4-yl}amino)pyrrolidin-2-one]
< 0.001	O[C@@H]1CCCC[C@H]1Nc1nnc(-c2ccc(C(F)(F)F)cc2C(F)(F)F)c2cncn12 [Compound 243, (1R,2R)-2-({1-[2,4-bis(trifluoromethyl)phenyl]imidazo[1,5-d][1,2,4]triazin-4-yl}amino)cyclohexan-1-ol]
0.001 to 0.01	O[C@H]1CCC[C@@H](Nc2nnc(-c3ccc(OC(F)F)cc3OC(F)(F)F)c3cccn23)C1 [Compound 153, (1S,3R)-3-({1-[4-(difluoromethoxy)-2-(trifluoromethoxy)phenyl]pyrrolo[1,2-d][1,2,4]triazin-4-yl}amino)cyclohexan-1-ol]
0.001 to 0.01	COc1ccc(-c2nnc(N[C@@H]3CCCC[C@H]3O)n3cncc23)c(OC(F)(F)F)c1 [Compound 223, (1R,2R)-2-({1-[4-methoxy-2-(trifluoromethoxy)phenyl]imidazo[1,5-d][1,2,4]triazin-4-yl}amino)cyclohexan-1-ol]
0.001 to 0.01	CCN1CCC[C@@H](Nc2nnc(-c3ccc(OC)cc3Cl)c3cc(C)nn23)C1 [Compound 374, 4-(2-chloro-4-methoxyphenyl)-N-[(3R)-1-ethylpiperidin-3-yl]-2-methylpyrazolo[1,5-d][1,2,4]triazin-7-amine]
0.001 to 0.01	O[C@@H]1COCC[C@H]1Nc1nnc(-c2ccc(C(F)(F)F)cc2CC(F)(F)F)c2cncn12 [Compound 313, (3S,4R)-4-({1-[2-(2,2,2-trifluoroethyl)-4-(trifluoromethyl)phenyl]imidazo[1,5-d][1,2,4]triazin-4-yl}amino)oxan-3-ol]
0.001 to 0.01	OCCN1CCC[C@@H](Nc2nnc(-c3ccc(C(F)(F)F)cc3C(F)(F)F)c3c(F)ccn23)C1 [Compound 30, 2-[(3R)-3-({1-[2,4-bis(trifluoromethyl)phenyl]-8-fluoropyrrolo[1,2-d][1,2,4]triazin-4-yl}amino)piperidin-1-yl]ethan-1-ol]
0.01 to 0.1	COc1ccc(-c2nnc(N[C@H]3C[C@](C)(CO)C3)n3cncc23)c(CC(F)(F)F)c1 [Compound 336, [(1r,3r)-3-({1-[4-methoxy-2-(2,2,2-trifluoroethyl)phenyl]imidazo[1,5-d][1,2,4]triazin-4-yl}amino)-1-methylcyclobutyl]methanol]
0.01 to 0.1	COc1ccc(-c2nnc(NCc3ncco3)n3cccc23)c(OC(F)(F)F)c1 [Compound 91, 1-[4-methoxy-2-(trifluoromethoxy)phenyl]-N-[(1,3-oxazol-2-yl)methyl]pyrrolo[1,2-d][1,2,4]triazin-4-amine]
< 0.001	CCN1CCC[C@@H](Nc2nnc(-c3ccc(C(F)(F)F)cc3OCF)c3cccn23)C1 [Compound 169, N-[(3R)-1-ethylpiperidin-3-yl]-1-[2-(fluoromethoxy)-4-(trifluoromethyl)phenyl]pyrrolo[1,2-d][1,2,4]triazin-4-amine]
